These results are taken from patent US20180099931A1 (AbbVie S.à.r.l., priority 2016, published 2018).

Each structure is given as a SMILES string. Like-named read-outs stand apart in the source and are kept apart here.

The target of this experiment is T1, F508delCFTR (Homo sapiens, UniProt P13569, DEL508-508).
T1 construct: expressed in transfected cells; host or cells: CFBE41o- human lung-derived epithelial cells (CFBE4lo-F508delCFTR-HRP), doxycycline-inducible
Put plainly: Cell Surface Expression-Horse Radish Peroxidase (CSE-HRP) Assay.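 As to Maximum % activity (with co-corrector): co-corrector and positive control are both the same reference corrector at 2 µM.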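 As to Maximum % activity (without co-corrector): percent of the 2 µM on-plate positive control corrector response above DMSO.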 Type of experiment: cell-based. To be noted: for Maximum % activity (with co-corrector) / Emax: maximum at any tested concentration, normalized to on-plate positive control; for Emax: read-out: Maximum % activity (without co-corrector).

[1] abbreviates: test compound without co-corrector, read-out: EC50 (without co-corrector).
The mark [2] stands for this setting: with co-corrector (2 μM of 3-[(2R,4R)-4-({[1-(2,2-difluoro-1,3-benzodioxol-5-yl)cyclopropyl]carbonyl}amino)-7-methoxy-3,4-dihydro-2H-chromen-2-yl]benzoic acid), read-out: EC50 (with co-corrector).
[3] abbreviates: test compound without co-corrector.

T1 sequence (P13569 with tags, fused parts or gaps DEL508-508): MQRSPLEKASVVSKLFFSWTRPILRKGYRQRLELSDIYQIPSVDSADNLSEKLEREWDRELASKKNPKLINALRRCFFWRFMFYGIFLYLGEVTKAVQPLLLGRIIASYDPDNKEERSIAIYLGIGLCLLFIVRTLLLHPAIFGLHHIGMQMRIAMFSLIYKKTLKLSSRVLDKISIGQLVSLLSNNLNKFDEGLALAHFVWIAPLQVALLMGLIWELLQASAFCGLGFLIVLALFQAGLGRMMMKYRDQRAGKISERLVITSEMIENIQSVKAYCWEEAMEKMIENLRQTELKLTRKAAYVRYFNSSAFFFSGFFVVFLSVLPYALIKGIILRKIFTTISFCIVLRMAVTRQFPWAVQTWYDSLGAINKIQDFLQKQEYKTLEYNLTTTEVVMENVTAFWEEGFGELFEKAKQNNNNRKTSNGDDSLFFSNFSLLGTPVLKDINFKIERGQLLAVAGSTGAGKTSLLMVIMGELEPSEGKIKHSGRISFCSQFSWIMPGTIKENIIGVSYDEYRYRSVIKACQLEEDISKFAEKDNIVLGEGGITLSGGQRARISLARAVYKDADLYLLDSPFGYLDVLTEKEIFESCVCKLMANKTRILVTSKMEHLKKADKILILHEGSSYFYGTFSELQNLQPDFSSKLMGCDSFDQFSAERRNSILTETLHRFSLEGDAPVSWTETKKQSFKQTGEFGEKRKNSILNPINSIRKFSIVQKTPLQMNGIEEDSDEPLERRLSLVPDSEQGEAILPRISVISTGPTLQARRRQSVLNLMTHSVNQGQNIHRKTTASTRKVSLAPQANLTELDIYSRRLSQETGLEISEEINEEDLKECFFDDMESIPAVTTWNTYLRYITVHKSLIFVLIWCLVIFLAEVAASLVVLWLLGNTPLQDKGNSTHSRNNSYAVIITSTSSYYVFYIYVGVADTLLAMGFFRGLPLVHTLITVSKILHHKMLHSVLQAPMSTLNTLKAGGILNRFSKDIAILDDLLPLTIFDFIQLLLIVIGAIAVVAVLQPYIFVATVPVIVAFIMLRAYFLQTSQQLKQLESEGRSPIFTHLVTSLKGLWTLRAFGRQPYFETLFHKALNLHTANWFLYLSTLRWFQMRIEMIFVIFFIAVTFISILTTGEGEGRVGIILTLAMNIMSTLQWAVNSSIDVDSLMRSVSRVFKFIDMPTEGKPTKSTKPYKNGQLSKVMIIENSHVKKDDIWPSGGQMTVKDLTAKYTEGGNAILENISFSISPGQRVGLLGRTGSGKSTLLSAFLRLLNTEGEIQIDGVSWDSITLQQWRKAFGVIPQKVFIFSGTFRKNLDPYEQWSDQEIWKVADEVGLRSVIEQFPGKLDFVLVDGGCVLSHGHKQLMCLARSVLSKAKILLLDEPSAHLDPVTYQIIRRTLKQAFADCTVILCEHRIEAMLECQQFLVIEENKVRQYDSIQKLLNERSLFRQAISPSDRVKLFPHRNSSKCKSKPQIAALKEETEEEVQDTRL

Usually EC50 stands for the concentration giving half of the maximal effect. For the compound `COc1ccc(C(F)(F)F)cc1CN[C@H]1[C@H](C(C)(C)C)[C@@H](C(=O)O)N(C(=O)OC(C)C)[C@H]1c1ccccc1OC` [II-136], the EC50 lay within 1 to 10 µM (CSE-HRP, test compound without co-corrector, read-out: EC50 (without co-corrector)) and 1 to 10 µM (CSE-HRP, with co-corrector (2 μM of 3-[(2R,4R)-4-({[1-(2,2-difluoro-1,3-benzodioxol-5-yl)cyclopropyl]carbonyl}amino)-7-methoxy-3,4-dihydro-2H-chromen-2-yl]benzoic acid), read-out: EC50 (with co-corrector)). Also, the “Maximum % activity (with co-corrector)” value (CSE-HRP, with co-corrector (2 μM)) was “+++ (≥350)”. For the same compound, where the note is “CSE-HRP, without co-corrector”, the Emax fell in the range of 100 to 200%.
`COc1cc(C(F)(F)F)cc(N[C@@H]2[C@@H](C(C)(C)OC)[C@H](C(=O)O)N(C(=O)C3CCCCC3)[C@@H]2c2ccccc2)n1` (racemic) [Example I-38]: the EC50 under setting [1] fell in the range of 1 to 10 µM and the EC50 under setting [2] was in the range of 1 to 10 µM. The “Maximum % activity (with co-corrector)” value (with co-corrector (2 μM)) is “++ (≥150 and <350)”. The Emax (without co-corrector) is below 100%.
Take `COc1ccc(C(C)(C)C)cc1CN[C@H]1[C@H](C(C)(C)C)[C@@H](C(=O)O)N(C(=O)[C@@H]2C[C@H]3CC[C@@H]2O3)[C@H]1c1ccccc1` (relative stereo) [Example I-241]: the EC50 fell in the range of 1 to 10 µM under setting [1] and 1 to 10 µM under setting [2]. The “Maximum % activity (with co-corrector)” value (with co-corrector (2 μM)) was “+++ (≥350)”. In addition, under “without co-corrector”, the Emax was above 200%.
Consider `COc1ccc(C(F)(F)F)cc1CN[C@@H]1[C@@H](C(C)(C)C)[C@H](C(=O)O)N(C(=O)C2CCCCC2)[C@H]1c1ccccc1` [III-199], for which, under setting [3], the Emax was below 100%. The EC50 by setting is: under setting [1], 1 to 10 µM; under setting [2], 1 to 10 µM. The “Maximum % activity (with co-corrector)” value (with co-corrector (2 μM)) was “++ (≥150 and <350)”.
On to `COc1ccc(C(C)(C)C)cc1CN[C@H]1[C@H](C(C)(C)C)[C@@H](C(=O)O)N(C(=O)C(C)n2cc(Cl)cn2)[C@H]1c1ccccc1` (stereo partly drawn) [Example I-103], for which the EC50 runs as follows: under setting [1], 1 to 10 µM; under setting [2], 1 to 10 µM. Moreover, for the setting “with co-corrector (2 μM)”, the “Maximum % activity (with co-corrector)” value is “+++ (≥350)”. Also, where the note is “without co-corrector”, the Emax is 100 to 200%.
With `COc1ccc(Cl)cc1CN[C@@H]1[C@@H](C(C)(C)C)[C@H](C(=O)O)N(C(=O)C2CCCCC2)[C@@H]1c1ccccn1` (racemic) [III-61], the Emax under setting [3] is below 100%. Further, the EC50 is, setting by setting: under setting [1], 1 to 10 µM; under setting [2], 1 to 10 µM. For the same compound, the “Maximum % activity (with co-corrector)” value (with co-corrector (2 μM of 3-[(2R,4R)-4-({[1-(2,2-difluoro-1,3-benzodioxol-5-yl)cyclopropyl]carbonyl}amino)-7-methoxy-3,4-dihydro-2H-chromen-2-yl]benzoic acid)) was “+++ (≥350)”.
